Assay results taken from patent publication US6444862B1, “Synthesis and isolation of metal alkoxides” (Mine Safety Appliances Company, priority 2000, dated 2002).

Assay: Solubility of metal alkoxide in solvent
Format: physicochemical
Conditions: solution in heptane
Description: To provide a safer material, metal alkoxides are often dissolved in a solvent. In general, liquids are, for example, easier to transfer from drums or cylinders into reactors (reducing the exposure of human handlers to dangerous materials), more easily kept under an inert atmosphere, and provide more options for modes of addition to the substrate. […] The low solubilities of many alkoxides have been attributed to the ionic character and the extent of oligomerization or polymerization in solution. Another factor affecting solubility in an alcohol solvent is the propensity of alkoxides to form insoluble alcoholate complexes with the alcohol. Metal alkoxides are somewhat more soluble in polar ethereal solvents such as tetrahydrofuran and the polyethers (glymes). However, even in ethers, the solubility is generally less than 50%, especially at or below room temperature (that is, at or below 25° C.). Moreover, the range of polar solvents is somewhat limited as a result of the reactivity of the alkoxide. Furthermore, in some cases the solvent of choice for the desired reaction involving a metal alkoxide is not compatible with the alkoxide or the metal alkoxide is insoluble therein.
In one set of studies, potassium 3,7-dimethyl-3-octanoxide (KDMO), was prepared by the reaction of potassium metal with 3,7-dimethyl-3-octanol in heptane in a pressure reaction vessel. […]

CCC(C)([O-])CCCC(C)C.[K+] (stereo not shown) [Example 1, Potassium 3,7-Dimethyl-3-octanoxide]
concentration of alkoxide solution prepared: 70-75 wt %
